We go through 16 molecules from patent US9125406B2, “Methods and compositions for control of cabbage looper, trichoplusia ni” (Simon Fraser University, priority 2008, dated 2015).

Data set [1] concerns third instar T. ni larvae. The data set can be described thus: Leaf disk choice feeding deterrence bioassay. The conditions noted are these: for pest or weed control at 50 µg/cm2, 50 µg/cm2 / pest or weed control at 50 µg/cm2: Trichoplusia, foliar; for pest or weed control at 50 µg/cm2: read-out: % deterrence; for DC50: feeding deterrence DC50, unit not given in Table 12. In kind it is in vivo, Trichoplusia ni. The text has this: Cabbage plants (Brassica oleraceae var. Stonehead) used in the bioassays were routinely grown in plastic pots with a mixture of sandy loam soil and peat moss (4:1) in a greenhouse at the University of British Columbia, Vancouver, BC, Canada. Leaves were collected from cabbage plants that were 5-6 weeks old.
T. ni larvae and moths were obtained from a long established colony (>50 generations) maintained on an artificial diet, Velvetbean Caterpillar Diet No. F9796 [Bio-Sery Inc. (Frenchtown, NIL)] in the insectary of the University of British Columbia (UBC).
(§1) Initial screening for feeding deterrent effects was conducted at 50 μg/cm^2 in feeding deterrent bioassays.
Larvae were given the choice of feeding on two leaf disks, one treated with 10 μL of a solution of the test substance painted on each side and the other treated with a carrier solvent alone. The number of larvae was 25 per treatment.
Feeding deterrence data (percent) for initial screening concentration were analyzed by analysis of variance (ANOVA) after arcsin transformation using statistics software (Statistix 7. Analytical Software, Statistix 7 for Windows 95, 98, NT, 2000. Analytical Software, Tallahassee).

For data set [2], the system named is T. ni moths. Briefly: Oviposition choice (deterrence) bioassay on cabbage leaves. To be noted: for pest or weed control at 0.25 %: Trichoplusia, 48 h, read-out: OD (%) Mean ± SE N = 35-40. Type of data set: in vivo, Trichoplusia ni.
For data set [3], the system named is T. ni moths. Described as above. The conditions noted are these: for % deterrence / Index = deterrence/mortality: Table 11; for % deterrence: BL mark not explained; for Index = deterrence/mortality: oviposition deterrence divided by mortality. In kind it is in vivo, Trichoplusia ni. As to the method:
as §1
T. ni larvae were reared on normal diet from neonates (<24 h old) until pupation. Pupae were sexed and put in separate plastic containers until emergence. After eclosion, pairs of moths (one male and one female) were introduced into each cage with a control and a treated cabbage leaf. Pairs of moths (n=25) were used per treatment. Each leaf (approximately 100-110 cm^2) was sprayed with 0.5 mL of MeOH or a methanolic solution of the test chemical on each side. Eggs were counted on each cabbage leaf after 48 h.

Data set [4] relates to third instar T. ni larvae. The data set can be described thus: whole plant or invertebrate. The conditions noted are these: for mortality at 0.25 %: Trichoplusia, topical, 24 h. As to the method:
as §1
Mortality was determined 24 h after spraying larvae directly with test solutions. Third instar T. ni larvae were sprayed in 90 mm×15 mm Petri dishes (Falcon) lined with Fisher Scientific filter paper (90 mm diameter). Small plastic hand spraying bottles (50 mL capacity) were used. Larvae were then transferred to Petri dishes (90 mm×15 mm) with a small piece of artificial diet. Each Petri dish contained 10 larvae. Three replicates, each consisting of 10 larvae, were used per treatment.

[5] abbreviates: Table 8, 50 μg/cm^2, read-out: F.D (%) Mean ± SE N = 25.
[6] abbreviates: feeding deterrence (FD), Table 12, non-toxic feeding deterrents.
Setting [7] is: oviposition deterrence at 0.25%.
[8] abbreviates: read-out: Mortality (%) N = 3 × 10, Table 8, at 0.25%.
Where [9] appears, read: contact toxicity to larvae, negative or zero values replaced by 0.1 for the index (footnote b).
The mark [10] stands for this setting: Table 7, second lots and purified isomers, 50 μg/cm^2, read-out: F.D (%) Mean ± SE N = 25.
The mark [11] stands for this setting: Table 7, second lots and purified isomers, at 0.25%.
Where [12] appears, read: read-out: Mortality (%) N = 3 × 10, Table 10, at 0.25%.

Read-outs that look alike come from different tables or passages of the source.

For `CCCCOc1ccccc1OCCC` [3a{3, 4}, 1-propoxy-2-butoxybenzene], the pest or weed control at 50 µg/cm2, 50 µg/cm2 in data set [1] (setting [5]) is 98 ± 2%. The pest or weed control at 50 µg/cm2 in data set [1] (setting [6]) came out at 98%. The same molecule had a DC50 in data set [1] of 21 μg/cm^2. In addition, the pest or weed control at 0.25 % in the data set with T. ni moths [2] (Table 8, at 0.25%) was 37 ± 14%. The “% deterrence” value with T. ni moths [3] (setting [7]) was 37 BL %. In addition, the “Index = deterrence/mortality” value in the data set on T. ni moths [3] is listed as 1.9. In data set [4] (setting [8]), the mortality (in general, the percentage killed) at 0.25 % came out at 19%. Also, the “% mortality” value in data set [4] (setting [9]) worked out at 19%.

Take `C=CCOc1ccccc1OCCCC` [3a{4, 6}, 1-allyloxy-2-butoxybenzene]: the pest or weed control at 50 µg/cm2, 50 µg/cm2 in data set [1] (setting [5]) was 92 ± 6%. Also, the pest or weed control at 50 µg/cm2 in data set [1] (setting [6]) came to 92%. In addition, in data set [1], the DC50 is listed as 17 μg/cm^2. Also, the pest or weed control at 0.25 % in the data set on T. ni moths [2] (Table 8, at 0.25%) amounted to 35 ± 17%. The “% deterrence” value in the data set with T. ni moths [3] (setting [7]) stood at 35 BL %. Further, the “Index = deterrence/mortality” value with T. ni moths [3] was 1.8. Also, the mortality at 0.25 % in data set [4] (setting [8]) came to 19%. Moreover, the “% mortality” value in data set [4] (setting [9]) is on record as 19%.

On to `C=CCOc1ccccc1OCCC(C)C` [3a{5, 6}, 1-allyloxy-2-isopentoxybenzene], for which, in the data set with T. ni moths [2] (Table 8, at 0.25%), the pest or weed control at 0.25 % is 26 ± 13.5%.

`COc1cccc(OCCC(C)C)c1` [3b{1, 5}, 1-methoxy-3-(3-methyl-butyloxy)benzene]: in data set [1] (setting [5]), the pest or weed control at 50 µg/cm2, 50 µg/cm2 amounted to 89 ± 7%. The pest or weed control at 0.25 % in the data set on T. ni moths [2] (Table 8, at 0.25%) lay in the range of 25 to 30%. Also, the mortality at 0.25 % in data set [4] (setting [8]) is 30%.

Consider `C=CCOc1cccc(OC)c1` [3b{1, 6}, 1-allyloxy-3-methoxybenzene], for which the pest or weed control at 50 µg/cm2, 50 µg/cm2 in data set [1] (setting [5]) was found to be 66 ± 12%. The pest or weed control at 0.25 % in the data set with T. ni moths [2] (Table 8, at 0.25%) is 9 ± 14%. Also, the mortality at 0.25 % in data set [4] (setting [8]) is 33%.

`CCCOc1cccc(OCCC(C)C)c1` [3b{3, 5}, 3-propoxy-1-isopentoxybenzene]: in data set [1] (setting [5]), the pest or weed control at 50 µg/cm2, 50 µg/cm2 stood at 97 ± 3%. Besides, in data set [1] (setting [6]), the pest or weed control at 50 µg/cm2 is 97%. In data set [1], this molecule came in with a DC50 of 17 μg/cm^2. Besides, the pest or weed control at 0.25 % in the data set on T. ni moths [2] (Table 8, at 0.25%) amounted to 9 ± 17%. Further, the mortality at 0.25 % in data set [4] (setting [8]) was determined as 10%. Also, the “% mortality” value in data set [4] (setting [9]) was found to be 10%.

As to `C=CCOc1cccc(OCCC(C)C)c1` [3b{5, 6}, 1-allyloxy-3-isopentoxybenzene], in the data set on T. ni moths [2] (Table 8, at 0.25%), the pest or weed control at 0.25 % was found to be 10 ± 13%.

With `C=CCOc1cccc(OCC=C)c1` [3b{6, 6}, 1,3-Diallyloxy benzene], in data set [1] (setting [5]), the pest or weed control at 50 µg/cm2, 50 µg/cm2 was 97 ± 3%. The pest or weed control at 50 µg/cm2 in data set [1] (setting [6]) came out at 97%. Besides, the DC50 in data set [1] worked out at 20 μg/cm^2. For the same molecule, the pest or weed control at 0.25 % with T. ni moths [2] (Table 8, at 0.25%) was in the range of 25 to 30%. Besides, in data set [4] (setting [8]), the mortality at 0.25 % was 13%. For the same molecule, the “% mortality” value in data set [4] (setting [9]) was determined as 13%.

Turning to `CCCOc1ccc(OCC)cc1` [3c{2, 3}, 4-ethoxy-1-propoxybenzene], the pest or weed control at 50 µg/cm2, 50 µg/cm2 in data set [1] (setting [5]) turned out to be 100%. The pest or weed control at 50 µg/cm2 in data set [1] (setting [6]) was 100%. The molecule further gave a DC50 in data set [1] of 33 μg/cm^2. In the data set with T. ni moths [2] (Table 8, at 0.25%), the pest or weed control at 0.25 % was 10 ± 13%. Also, the mortality at 0.25 % in data set [4] (setting [8]) worked out at 17%. Further, the “% mortality” value in data set [4] (setting [9]) is 17%.

For `C=CCOc1ccc(OCC)cc1` [3c{2, 6}, 1-allyloxy-4-ethoxybenzene], the pest or weed control at 50 µg/cm2, 50 µg/cm2 in data set [1] (setting [5]) turned out to be 73 ± 12%. Also, the pest or weed control at 0.25 % with T. ni moths [2] (Table 8, at 0.25%) is < 30%. In data set [4] (setting [8]), the mortality at 0.25 % amounted to 6.7%.

`C=CCOc1ccc(OCCC(C)C)cc1` [3c{5, 6}, 1-allyloxy-4-isopentoxybenzene]: in data set [1] (Table 3, 1,4-dialkoxybenzenes, feeding deterrence at 50 μg/cm^2, read-out: FD (%), mean ± SE (n = 25)), the pest or weed control at 50 µg/cm2, 50 µg/cm2 amounted to 75.1 ± 12.7%. In addition, the pest or weed control at 0.25 % was -25 ± 12% in the data set with T. ni moths [2] (Table 8, at 0.25%) and 18.8 ± 14.3% in the data set with T. ni moths [3] (Trichoplusia, 48 h, Table 3, oviposition deterrence at 0.25%, 48 h, read-out: OD (%), mean ± SE (n = 25-33)). Besides, in data set [4] (read-out: mortality (%) (n = 3 × 10), Table 3, at 0.25%), the mortality at 0.25 % amounted to 7%.

For the molecule `C=CCc1c(OC)cccc1OCCC` [5b{3, 1} y (100% y), 1-methoxy-2-allyl-3-propoxy-benzene], the pest or weed control at 50 µg/cm2, 50 µg/cm2 in data set [1] (setting [10]) was 100%. In addition, the pest or weed control at 0.25 % in the data set with T. ni moths [2] (setting [11]) was found to be 17 ± 14%.

Turning to `C=CCc1c(OCC)cccc1OCCC` [5b{3, 2} y (100% y), 1-ethoxy-2-allyl-3-propoxy-benzene], in data set [1] (setting [10]), the pest or weed control at 50 µg/cm2, 50 µg/cm2 stood at 74 ± 14%. Further, the pest or weed control at 0.25 % in the data set on T. ni moths [2] (setting [11]) was -6.4 ± 11.4%. Besides, the mortality at 0.25 % in data set [4] (read-out: Mortality (%) N = 3 × 10, Table 7, second lots and purified isomers, at 0.25%) is 0%.

In the case of `C=CCc1cc(OC)ccc1OC` [5c{1, 1}, 1,4-dimethoxy-2-allyl-benzene], in data set [1], the pest or weed control at 50 µg/cm2 was determined as 80% and the DC50 is recorded as 20 μg/cm^2. The pest or weed control at 50 µg/cm2, 50 µg/cm2 in data set [1] (read-out: F.D (%) Mean ± SE N = 25) turned out to be 80 ± 11%. In the data set with T. ni moths [2], the pest or weed control at 0.25 % turned out to be 14 ± 12%. Besides, in data set [4] (setting [12]), the mortality at 0.25 % was found to be 38.9%. Besides, the “% mortality” value in data set [4] (in vivo) stood at 39%.

`C=CCc1cc(OCCC)ccc1OC` [5c{3, 1}, 1-methoxy-2-allyl-4-propoxy-benzene]: the pest or weed control at 50 µg/cm2, 50 µg/cm2 in data set [1] (Table 10, 50 μg/cm^2, read-out: F.D (%) Mean ± SE N = 25) was 92 ± 6%. Besides, in data set [1] (setting [6]), the pest or weed control at 50 µg/cm2 turned out to be 92%. In data set [1], this molecule registered a DC50 of 9 μg/cm^2. Besides, the pest or weed control at 0.25 % in the data set with T. ni moths [2] (Table 10, at 0.25%) came out at 7 ± 15%. Further, the mortality at 0.25 % in data set [4] (setting [12]) came out at 6.4%. Besides, the “% mortality” value in data set [4] (setting [9]) is given as 6%.

With `CCN(CC)C(=O)c1cccc(C)c1` [DEET, reference compound], the “F.D (%) Mean ± SE N = 25” value in data set [1] (Table 8, 50 μg/cm^2) was 60 ± 15 ^AB %. For the same molecule, the “OD (%) Mean ± SE N = 35-40” value in the data set on T. ni moths [2] (Table 8, at 0.25%) turned out to be 23 ± 14%. Further, the “Mortality (%) N = 3 × 10” value in data set [4] (Table 8, at 0.25%) was found to be 7%.
